From ChEMBL document CHEMBL6115036, “Exploration of membrane-active cephalosporin derivatives as potent antibacterial agents against Staphylococcus aureus biofilms and persisters” (Eur J Med Chem, 2025) come the findings set out here.

A word on the MIC: it is the lowest concentration that inhibits growth of the organism. A higher MIC goes with weaker potency. What is called HC50 is the concentration giving 50% haemolysis. A lower HC50 goes with more damage to red cells.

Data set [1] concerns Staphylococcus aureus. In words: Induction of cytoplasmic membrane depolarization in Staphylococcus aureus assessed as increase in fluorescence intensity measured for 20 mins by DiSC3(5) dye based analysis. Format: functional, organism-based.
The test system of data set [2] is Stenotrophomonas maltophilia. Description: Antimicrobial activity against Stenotrophomonas maltophilia incubated for 16 to 18 hrs by broth dilution assay. The settings on record: time 16-18 hrs. It counts as functional. In general terms: In broth dilution the organism is exposed to a series of concentrations in liquid medium.
The test system of another data set is Enterococcus faecalis. Description: Antimicrobial activity against Enterococcus faecalis incubated for 16 to 18 hrs by broth dilution assay. It counts as functional. The settings on record: time 16-18 hrs.
Data set [3] relates to Staphylococcus aureus. Description: Antimicrobial activity against Staphylococcus aureus incubated for 16 to 18 hrs by broth dilution assay. The settings on record: time 16-18 hrs. Format: functional.
Data set [4] relates to Staphylococcus aureus. Description: Induction of inner membrane permeability in Staphylococcus aureus assessed as increase in fluorescence intensity measured for 20 mins by PI dye based analysis. Format: functional, organism-based.
Another data set concerns Escherichia coli. In words: Antimicrobial activity against Escherichia coli incubated for 16 to 18 hrs by broth dilution assay. Format: functional. As to conditions: time 16-18 hrs.
Data set [5] can be described thus: Hemolytic activity in sheep red blood cells incubated for 1 hr. It counts as toxicity, cell-based, Ovis aries, Erythrocyte.
Data set [6] relates to Staphylococcus aureus. Description: Induction of inner membrane permeability in Staphylococcus aureus assessed as increase in fluorescence intensity at 16 ug/ml measured for 20 mins by PI dye based analysis. It counts as functional, organism-based. The settings on record: dose 16.0 µg/ml.
For data set [7], the system named is Staphylococcus aureus. Description: Induction of cytoplasmic membrane depolarization in Staphylococcus aureus assessed as increase in fluorescence intensity at 16 ug/ml measured for 20 mins by DiSC3(5) dye based analysis. Format: functional, organism-based. The settings on record: dose 16.0 µg/ml.

Activity calls are given as the source filed them. The calls are words filed in the database; no cut-off is given here.

As for `CCCCCCCC[n+]1ccc(C(=O)N[C@@H]2C(=O)N3C(C(=O)O)=C(COC(C)=O)CS[C@H]23)cc1.[I-]`, the outcome with Staphylococcus aureus [1] and with Staphylococcus aureus [4] was inactive. The minimum inhibitory concentration (MIC) (in data set [2]; in the data set with Enterococcus faecalis; against Staphylococcus aureus [3]; in the data set with Escherichia coli) was over 128 µg/mL each time.

Regarding `CCCCCC[n+]1ccc(C(=O)N[C@@H]2C(=O)N3C(C(=O)OC(c4ccccc4)c4ccccc4)=C(COC(C)=O)CS[C@H]23)cc1.[I-]`, the result in the data set with Staphylococcus aureus [1] and with Staphylococcus aureus [4] was Active. Moreover, the MIC is over 128 µg/mL in data set [2], 128 µg/mL with Enterococcus faecalis, 64 µg/mL in the data set with Staphylococcus aureus [3] and over 128 µg/mL in the data set with Escherichia coli.

On to `CCCCCCCC[n+]1ccc(SCC2=C(C(=O)O)N3C(=O)[C@@H](NC(=O)Cc4ccccc4)[C@H]3SC2)cc1.O=C([O-])C(F)(F)F`, for which the result with Staphylococcus aureus [1] and in the data set on Staphylococcus aureus [4] was inactive. Further, the minimum inhibitory concentration (MIC) in data set [2] was found to be 128 µg/mL; in the data set with Enterococcus faecalis, 4 µg/mL; in the data set on Staphylococcus aureus [3] it was 0.063 µg/mL; in the data set with Escherichia coli it was 128 µg/mL.

`CCCCCC[n+]1ccc(C(=O)N[C@@H]2C(=O)N3C(C(=O)O)=C(COC(C)=O)CS[C@H]23)cc1.[I-]`: the outcome in the data set on Staphylococcus aureus [1] and in the data set with Staphylococcus aureus [4] was inactive. The MIC (in data set [2]; against Enterococcus faecalis; against Staphylococcus aureus [3]; against Escherichia coli) was over 128 µg/mL throughout.

For `CCCCCCCCCCNC(=O)c1ccc[n+](CC2=C(C(=O)O)N3C(=O)[C@@H](NC(=O)Cc4ccccc4)[C@H]3SC2)c1.[I-]`, in data set [5], the HC50 at 1 h was determined as 318 µg/mL. The minimum inhibitory concentration (MIC) in data set [2] is over 128 µg/mL; in the data set with Enterococcus faecalis it was 16 µg/mL; with Staphylococcus aureus [3], 0.063 µg/mL; against Escherichia coli, over 128 µg/mL. In addition, the outcome in the data set on Staphylococcus aureus [6] and in the data set with Staphylococcus aureus [7] was inactive.

With `CCCCCCCCNC(=O)c1cc[n+](CC2=C(C(=O)O)N3C(=O)[C@@H](NC(=O)Cc4ccccc4)[C@H]3SC2)cc1.[I-]`, in data set [5], the HC50 at 1 h is over 1280 µg/mL. Also, the minimum inhibitory concentration (MIC) is over 128 µg/mL in data set [2], 16 µg/mL in the data set on Enterococcus faecalis, 0.063 µg/mL in the data set with Staphylococcus aureus [3] and over 128 µg/mL against Escherichia coli. Besides, the outcome with Staphylococcus aureus [6] and in the data set on Staphylococcus aureus [7] was inactive.

As for `CCCCCCCCCCNC(=O)c1cc[n+](CC2=C(C(=O)O)N3C(=O)[C@@H](NC(=O)Cc4ccccc4)[C@H]3SC2)cc1.[I-]`, the HC50 at 1 h in data set [5] came to 321 µg/mL. Also, the minimal inhibitory concentration (MIC) in data set [2] was over 128 µg/mL; with Enterococcus faecalis, 16 µg/mL; with Staphylococcus aureus [3] it was 0.063 µg/mL; with Escherichia coli, over 128 µg/mL. Moreover, the result with Staphylococcus aureus [6] and in the data set on Staphylococcus aureus [7] was inactive.

Consider `CCCCCCCCCCCCNC(=O)c1ccc[n+](CC2=C(C(=O)O)N3C(=O)[C@@H](NC(=O)Cc4ccccc4)[C@H]3SC2)c1.[I-]`, for which the HC50 at 1 h in data set [5] was found to be 291 µg/mL. In addition, the MIC in data set [2] is over 128 µg/mL; against Enterococcus faecalis it was 16 µg/mL; against Staphylococcus aureus [3], 0.5 µg/mL; against Escherichia coli it was over 128 µg/mL. In addition, the outcome in the data set on Staphylococcus aureus [6] and in the data set on Staphylococcus aureus [7] was inactive.

Consider `CCCCCCCCCCCCCCNC(=O)c1ccc[n+](CC2=C(C(=O)O)N3C(=O)[C@@H](NC(=O)Cc4ccccc4)[C@H]3SC2)c1.[I-]`, for which, in data set [5], the concentration for 50% haemolysis (HC50) at 1 h turned out to be 155 µg/mL. The MIC was over 128 µg/mL in data set [2], 16 µg/mL with Enterococcus faecalis, 2 µg/mL against Staphylococcus aureus [3] and over 128 µg/mL in the data set with Escherichia coli. For the same compound, the result in the data set with Staphylococcus aureus [6] and in the data set on Staphylococcus aureus [7] was inactive.

`CCCCCCCCCCCCNC(=O)c1cc[n+](CC2=C(C(=O)O)N3C(=O)[C@@H](NC(=O)Cc4ccccc4)[C@H]3SC2)cc1.[I-]` displayed a 50% haemolytic concentration (HC50) at 1 h in data set [5] of 254 µg/mL. Moreover, the MIC was over 128 µg/mL in data set [2], 8 µg/mL in the data set on Enterococcus faecalis, 0.25 µg/mL in the data set with Staphylococcus aureus [3] and over 128 µg/mL with Escherichia coli. For the same compound, the result with Staphylococcus aureus [6] and in the data set on Staphylococcus aureus [7] was inactive.
